Results from PubChem BioAssay (NCI).
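Interpolation was linear, between the two tested concentrations surrounding the appropriate level; five concentrations were tested over 48 hours in 96-well plates. TGI is the concentration that stops growth completely.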

Columns and labels:
Assay in all cases: NCI-60 cell line screen, 48 h
KM12 colon = test system: KM12 colon
SK-OV-3 ovarian = test system: SK-OV-3 ovarian
HS 578T breast = test system: HS 578T breast
HL-60(TB) leukemia = test system: HL-60(TB) leukemia
A549 NSCLC = test system: A549 NSCLC
HOP-62 NSCLC = test system: HOP-62 NSCLC
HCT-116 colon = test system: HCT-116 colon
RXF 393 renal = test system: RXF 393 renal
MOLT-4 leukemia = test system: MOLT-4 leukemia
SN12C renal = test system: SN12C renal
A498 renal = test system: A498 renal
HT29 colon = test system: HT29 colon
MALME-3M melanoma = test system: MALME-3M melanoma
COLO 205 colon = test system: COLO 205 colon
MCF7 breast = test system: MCF7 breast
MDA-MB-435 = test system: MDA-MB-435
DU-145 prostate = test system: DU-145 prostate
TK-10 renal = test system: TK-10 renal
LOX IMVI melanoma = test system: LOX IMVI melanoma
OVCAR-8 ovarian = test system: OVCAR-8 ovarian
SK-MEL-28 melanoma = test system: SK-MEL-28 melanoma
UO-31 renal = test system: UO-31 renal
RPMI-8226 leukemia = test system: RPMI-8226 leukemia
NCI-H226 lung = test system: NCI-H226 lung
HOP-92 NSCLC = test system: HOP-92 NSCLC
EKVX NSCLC = test system: EKVX NSCLC
SF-268 CNS = test system: SF-268 CNS
BT-549 breast = test system: BT-549 breast
OVCAR-5 ovarian = test system: OVCAR-5 ovarian
UACC-62 melanoma = test system: UACC-62 melanoma
PC-3 prostate = test system: PC-3 prostate
HCT-15 colon = test system: HCT-15 colon
HCC-2998 colon = test system: HCC-2998 colon
T-47D breast = test system: T-47D breast
SF-539 CNS = test system: SF-539 CNS
ACHN renal = test system: ACHN renal
SNB-19 CNS = test system: SNB-19 CNS
SK-MEL-5 melanoma = test system: SK-MEL-5 melanoma
786-0 renal = test system: 786-0 renal
MDA-N = test system: MDA-N
CAKI-1 renal = test system: CAKI-1 renal
NCI-H522 lung = test system: NCI-H522 lung
OVCAR-3 ovarian = test system: OVCAR-3 ovarian
SW-620 colon = test system: SW-620 colon
U251 CNS = test system: U251 CNS
M14 melanoma = test system: M14 melanoma
K-562 leukemia = test system: K-562 leukemia
NCI-H460 lung = test system: NCI-H460 lung
SK-MEL-2 melanoma = test system: SK-MEL-2 melanoma
SR leukemia = test system: SR leukemia
UACC-257 melanoma = test system: UACC-257 melanoma
IGROV1 ovarian = test system: IGROV1 ovarian
CCRF-CEM leukemia = test system: CCRF-CEM leukemia
SNB-75 CNS = test system: SNB-75 CNS
NCI-H23 lung = test system: NCI-H23 lung
OVCAR-4 ovarian = test system: OVCAR-4 ovarian
MDA-MB-231 breast = test system: MDA-MB-231 breast
NCI/ADR-RES ovarian = test system: NCI/ADR-RES ovarian
SF-295 CNS = test system: SF-295 CNS

**Q.** Which TGI (KM12 colon) does the source give for `[N-]=[N+]=Nc1ccc2c(c1)Sc1ccccc1N2CCCCN1CCN(Cc2ccc(C(=O)c3ccccc3)cc2)CC1` here?
**A.** > 100 µM

**Q.** And the TGI (SK-OV-3 ovarian)?
**A.** > 100 µM

**Q.** What about the TGI (HS 578T breast) of the same molecule?
**A.** > 100 µM

**Q.** And the TGI (HL-60(TB) leukemia)?
**A.** 10.1 µM

**Q.** What about the TGI (A549 NSCLC) of the same molecule?
**A.** > 100 µM

**Q.** And the TGI (HOP-62 NSCLC)?
**A.** > 100 µM

**Q.** What about the TGI (HCT-116 colon) of the same molecule?
**A.** > 56.8 µM

**Q.** What about the TGI (RXF 393 renal) of the same molecule?
**A.** 5.37 µM

**Q.** What about the TGI (MOLT-4 leukemia) of the same molecule?
**A.** > 100 µM

**Q.** And the TGI (SN12C renal)?
**A.** > 100 µM

**Q.** What about the TGI (A498 renal) of the same molecule?
**A.** > 29 µM

**Q.** What about the TGI (HT29 colon) of the same molecule?
**A.** 3.53 µM

**Q.** And the TGI (MALME-3M melanoma)?
**A.** 4.28 µM

**Q.** And the TGI (COLO 205 colon)?
**A.** 3.55 µM

**Q.** What about the TGI (MCF7 breast) of the same molecule?
**A.** > 23.3 µM

**Q.** What about the TGI (MDA-MB-435) of the same molecule?
**A.** > 100 µM

**Q.** What about the TGI (DU-145 prostate) of the same molecule?
**A.** > 100 µM

**Q.** What about the TGI (TK-10 renal) of the same molecule?
**A.** > 96.2 µM

**Q.** What about the TGI (LOX IMVI melanoma) of the same molecule?
**A.** 3.56 µM

**Q.** What about the TGI (OVCAR-8 ovarian) of the same molecule?
**A.** > 36.4 µM

**Q.** What about the TGI (SK-MEL-28 melanoma) of the same molecule?
**A.** 3.57 µM

**Q.** And the TGI (UO-31 renal)?
**A.** > 27.9 µM

**Q.** What about the TGI (RPMI-8226 leukemia) of the same molecule?
**A.** > 100 µM

**Q.** What about the TGI (NCI-H226 lung) of the same molecule?
**A.** > 100 µM

**Q.** What about the TGI (HOP-92 NSCLC) of the same molecule?
**A.** 11.7 µM

**Q.** And the TGI (EKVX NSCLC)?
**A.** > 100 µM

**Q.** And the TGI (SF-268 CNS)?
**A.** > 100 µM

**Q.** What about the TGI (BT-549 breast) of the same molecule?
**A.** > 66.1 µM

**Q.** And the TGI (OVCAR-5 ovarian)?
**A.** > 100 µM

**Q.** What about the TGI (UACC-62 melanoma) of the same molecule?
**A.** 6.1 µM

**Q.** And the TGI (PC-3 prostate)?
**A.** > 100 µM

**Q.** What about the TGI (HCT-15 colon) of the same molecule?
**A.** > 100 µM

**Q.** What about the TGI (HCC-2998 colon) of the same molecule?
**A.** 3.86 µM

**Q.** And the TGI (T-47D breast)?
**A.** 22.7 µM

**Q.** What about the TGI (SF-539 CNS) of the same molecule?
**A.** 23.1 µM

**Q.** What about the TGI (ACHN renal) of the same molecule?
**A.** > 100 µM

**Q.** And the TGI (SNB-19 CNS)?
**A.** > 100 µM

**Q.** And the TGI (SK-MEL-5 melanoma)?
**A.** 4.09 µM

**Q.** And the TGI (786-0 renal)?
**A.** > 100 µM

**Q.** And the TGI (MDA-N)?
**A.** > 100 µM

**Q.** What about the TGI (CAKI-1 renal) of the same molecule?
**A.** > 65.4 µM

**Q.** And the TGI (NCI-H522 lung)?
**A.** 4.43 µM

**Q.** And the TGI (OVCAR-3 ovarian)?
**A.** > 100 µM

**Q.** And the TGI (SW-620 colon)?
**A.** > 100 µM

**Q.** What about the TGI (U251 CNS) of the same molecule?
**A.** > 100 µM

**Q.** What about the TGI (M14 melanoma) of the same molecule?
**A.** 3.95 µM

**Q.** What about the TGI (K-562 leukemia) of the same molecule?
**A.** > 100 µM

**Q.** What about the TGI (NCI-H460 lung) of the same molecule?
**A.** > 100 µM

**Q.** And the TGI (SK-MEL-2 melanoma)?
**A.** 6.86 µM

**Q.** What about the TGI (SR leukemia) of the same molecule?
**A.** > 24.3 µM

**Q.** And the TGI (UACC-257 melanoma)?
**A.** 4.41 µM

**Q.** And the TGI (IGROV1 ovarian)?
**A.** > 100 µM

**Q.** And the TGI (CCRF-CEM leukemia)?
**A.** > 100 µM

**Q.** And the TGI (SNB-75 CNS)?
**A.** > 100 µM

**Q.** What about the TGI (NCI-H23 lung) of the same molecule?
**A.** > 80.8 µM

**Q.** What about the TGI (OVCAR-4 ovarian) of the same molecule?
**A.** > 100 µM

**Q.** And the TGI (MDA-MB-231 breast)?
**A.** 33 µM

**Q.** And the TGI (NCI/ADR-RES ovarian)?
**A.** > 100 µM

**Q.** And the TGI (SF-295 CNS)?
**A.** > 100 µM
